Here are results for three compounds from patent US7358245B2, “Treatment of gastroesophageal reflux disease” (AstraZenca AB, priority 2001, dated 2008).

The subject of this experiment is transient lower esophageal sphincter relaxations (TLESRs). Put plainly: Screening for compounds active against TLESR (motility measurement in dogs). To be noted: vs five preceding control experiments for each dog. It is filed as in vivo, Adult Labrador retrievers (dog). As for the experimental part:
Adult Labrador retrievers of both genders, trained to stand in a Pavlov sling, are used. Mucosa-to-skin esophagostomies are formed and the dogs are allowed to recover completely before any experiments are done.
In brief, after fasting for approximately 17 h with free supply of water, a multilumen sleeve/sidehole assembly (Dentsleeve, Adelaide, South Australia) is introduced through the esophagostomy to measure gastric, lower esophageal sphincter (LES) and esophageal pressures. The assembly is perfused with water using a low-compliance manometric perfusion pump (Dentsleeve, Adelaide, South Australia). An air-perfused tube is passed in the oral direction to measure swallows, and an antimony electrode monitored pH, 3 cm above the LES. All signals are amplified and acquired on a personal computer at 10 Hz.
When a baseline measurement free from fasting gastric/LES phase III motor activity has been obtained, placebo (0.9% NaCl) or test compound is administered intravenously (i.v., 0.5 ml/kg) in a foreleg vein. Ten min after i.v. administration, a nutrient meal (10% peptone, 5% D-glucose, 5% Intralipid, pH 3.0) is infused into the stomach through the central lumen of the assembly at 100 ml/min to a final volume of 30 ml/kg. Immediately following the meal, air is insufflated at 40 ml/min. The experimental time from start of nutrient infusion to end of air insufflation is 45 min. The procedure has been validated as a reliable means of triggering TLESRs.
TLESRs is defined as a decrease in lower esophageal sphincter pressure (with reference to intragastric pressure) at a rate of >1 mmHg/s. The relaxation should not be preceded by a pharyngeal signal ≦2 s before its onset in which case the relaxation is classified as swallow-induced. The pressure difference between the LES and the stomach should be less than 2 mmHg, and the duration of the complete relaxation longer than 1 s.
The aminoalkylindole cannabinoid WIN 55,212-2, purchased from Tocris Cookson (Bristol, U.K.), was tested on Adult Labrador retrievers of both genders in accordance with the test model described above.
Inhibition of the number of TLESRs was calculated with regard to the five preceding control experiments for each dog, and the results as set out in Table 1 below were achieved.

For the compound `Cc1c(C(=O)c2cccc3ccccc23)c2cccc3c2n1[C@H](CN1CCOCC1)CO3` [WIN 55,212-2, (2-methyl-3-morpholin-4-ylmethyl-3,4-dihydro-5-oxa-2a-aza-acenaphthylen-1-yl)-naphthalen-1-yl-methanone], the “% INHIBITION ± SEM (N) of the number of TLESRs” value (shortened to “% INHIBITION ± SEM (N)”) (dose 0.003 mg/kg i.v.) is 20 ± 18 (4) %, the “% INHIBITION ± SEM (N)” value (dose 0.01 mg/kg i.v.) is reported as 70 ± 10 (4) % and the “% INHIBITION ± SEM (N)” value (dose 0.03 mg/kg i.v.) is listed as 82 ± 1 (4) %.
For `COc1ccc2c(c1)c(CCN1CCOCC1)c(C)n2C(=O)c1cccc(Cl)c1Cl` [L-768,242, (2,3-dichloro-phenyl)-[5-methoxy-2-methyl-3-(2-morpholin-4-yl-ethyl)-indol-1-yl]-methanone], the “% INHIBITION ± SEM (N)” value (dose 0.3 μmol/kg i.v.) is 8 ± 21 (4) %, the “% INHIBITION ± SEM (N)” value (dose 1 μmol/kg i.v.) is 44 ± 6 (5) %, the “% INHIBITION ± SEM (N)” value (dose 5 μmol/kg i.v.) was 63 ± 5 (4) % and the “% INHIBITION ± SEM (N)” value (dose 7 μmol/kg i.v.) was 76 ± 12 (3) %.
Regarding `Cc1c(C(=O)NN2CCCCC2)nn(-c2ccc(Cl)cc2Cl)c1-c1ccc(Cl)cc1` [SR141716A], the “% STIMULATION ± SEM (N) of the number of TLESRs” value (dose 0.22 μmol/kg i.v.) is given as 43 ± 16 (6) %.
